According to ChEMBL document CHEMBL1149141, “Crystal structures of the vitamin D nuclear receptor liganded with the vitamin D side chain analogues calcipotriol and seocalcitol, receptor agonists of clinical importance. Insights into a structural basis for the switching of calcipotriol to a receptor antagonist by further side chain …” (J Med Chem, 2004):

Key:
[1] = target: T1, Vitamin D3 receptor (Homo sapiens) (UniProt P11473); assay: Binding of compound towards human Vitamin D3 receptor was determined in vitro
T1 sequence (whole entry): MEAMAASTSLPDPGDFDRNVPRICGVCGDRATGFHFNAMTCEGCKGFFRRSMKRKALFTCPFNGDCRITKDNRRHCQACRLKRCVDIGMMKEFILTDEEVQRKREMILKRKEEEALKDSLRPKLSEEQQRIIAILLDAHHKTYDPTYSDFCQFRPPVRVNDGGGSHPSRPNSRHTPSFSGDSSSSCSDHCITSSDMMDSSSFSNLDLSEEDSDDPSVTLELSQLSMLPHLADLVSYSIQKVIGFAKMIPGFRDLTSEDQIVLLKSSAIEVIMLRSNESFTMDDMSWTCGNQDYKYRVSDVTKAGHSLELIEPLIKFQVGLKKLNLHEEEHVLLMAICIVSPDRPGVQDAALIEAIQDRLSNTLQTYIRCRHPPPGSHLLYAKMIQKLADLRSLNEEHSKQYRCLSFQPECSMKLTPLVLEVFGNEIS

[2] = target: T2, Vitamin D3 receptor (Homo sapiens, UniProt P11473); assay: Effective concentration required for inhibition of Vitamin D3 receptor
T2 sequence (P11473 whole entry): T1 sequence (whole entry)

Row | Compound | Binding [1] [%] | EC50 [2] [nM]
1 | C=C1/C(=C\C=C2/CCC[C@]3(C)[C@@H]([C@H](C)/C=C/C=C/C(O)(CC)CC)CC[C@@H]23)C[C@@H](O)C[C@@H]1O | 80 | 
2 | C=C1/C(=C\C=C2/CCC[C@]3(C)[C@@H]([C@H](C)/C=C/[C@@H](O)C4(/C=C/C(=O)OCC)CC4)CC[C@@H]23)C[C@@H](O)C[C@@H]1O |  | 0.35
3 | C=C1/C(=C\C=C2/CCC[C@]3(C)[C@@H]([C@H](C)/C=C/[C@@H](O)C4CC4)CC[C@@H]23)C[C@@H](O)C[C@@H]1O | 90 | 
4 | C=C1/C(=C\C=C2/CCC[C@]3(C)[C@@H]([C@H](C)/C=C/[C@@H](O)C4(C(=O)OCCCC)CC4)CC[C@@H]23)C[C@@H](O)C[C@@H]1O |  | 0.4
